The results in this text go back to patent publication US7271239B2, “D-isomers of antimicrobial peptide” (The Research Foundation of State University of New York, priority 2004, dated 2007).

As a reminder, the IC50 is the point on the concentration scale where inhibition reaches its midpoint. A higher IC50 goes with weaker potency.

One data set relates to C. albicans strain DIS. In kind it is in vivo, mice ICR strain. The settings on record: for Log10 cfu/ml (Mean + S.D.), Initial infection: before treatment (baseline). The method, then: A previously described protocol was adopted (14). Mice were immunosuppressed with two subcutaneous injections of prednisolone at a dose of 100 mg/kg body weight 1 day prior to and 3 days after the infection with C. albicans. Tetracycline hydrochloride in drinking water at a concentration of 0.83 mg/ml was given to mice beginning 1 day before infection. Mice were anesthetized by intramuscular injection with 60 μl of 2 mg/ml chlorpromazine chloride, using a dose of 10 mg/kg body weight of mice. While under anesthesia, a small cotton ball soaked in 0.1 ml aliquot of C. albicans cell suspension (2.5×10^6 cells) was used to swab the entire oral cavity of the anesthetized mice.
Visual evaluation was done by carefully extending the tongue of randomly picked mice using blunt-end forceps, while the mice were under isoflurane sedation. Presence of thick, white curd-like patches indicated candidal infection. At day 3 post-infection, all animals were examined for evidence oral candidal infection by microbiological evaluation. The entire oral cavity of anesthetized mice was swabbed using a sterile calcium alginate disposable swab (Fisher Scientific), dampened with sterile PBS. Cells were then released from the swab into 1 ml PBS. Serial 10-fold dilutions were plated on SDA plates supplemented with streptomycin (30 μg/ml). Plates were incubated for 24 h at 37° C. and yeast cell count expressed as log10 of cfu/ml.
Tongues from sacrificed animals were used for histological studies. They were fixed in 10% formalin and embedded in paraffin. Serial five-μm sections were cut from the paraffin block and stained with periodic acid-Schiff (PAS) reagent for detection of C. albicans.
Mice were randomly divided into various treatment groups with 8 mice per group. Antifungal agents were employed on an equimolar basis, and included amphotericin B (1.75%), clotrimazole (0.66%), MUC7 12-mer (RKSYKCLHKRCR—SEQ ID NO:1) (L; 3%), MUC7 12-mer (D; 3%), MUC7 12-mer (D; 3%) containing Na2EDTA (1 mM), MUC7 12-mer (L; 3%) containing protease inhibitor cocktail (PIC) (1%), and Hsn5 12-mer (AKRHHGYKRKFH—SEQ ID NO:2) (3%). They were all emulsified in Pluronic F127, (20% lipoil), a polymer of polyoxyethylene and polyoxypropylene (non-ionic surfactant). Animals were anesthetized using isoflurane; while sedated, about 30 to 40 μl of the antifungal emulsion was applied on the tongue and spread throughout oral cavity. The treated mice were under sedation for additional 5 min under isoflurane. Animals were not given access to food and water for 1 h following the application.
Fungal burden was re-evaluated quantitatively after 3 and 6 days of treatment, using the same technique as the one used for initial evaluation. Randomly picked mice from each group was subjected to histopathological evaluation, after 6 days of treatment. Blood from randomly sacrificed mice from each treatment group was analyzed for any changes in the serum liver (AST, ALT, ALP etc.) and kidney enzymes (BUN, glucose, creatinine etc) levels.
Statistical analysis was performed using a significance level set at 0.05 (α) and a significant group size (n=8). Initial infection and antifungal treatment efficacy were determined using analysis of variance (ANOVA), expressed as log10 cfu, and Scheffe's multiple comparison test was used to determine the differences between various treatment groups.

A further data set deals with HOK-16B cells. In words: MTS cell viability assay. Format: cell-based, human. The method, then:
FIG. 6. Effect of peptides on viability of (A) HOK-16B cells and (B) KB cells. The toxic effect of the compounds on the cells was determined by calorimetric assay using a CellTiter 96 AQueous One Solution cell proliferation assay (MTS) kit, as described in the text. Briefly, the cells were grown to about 80% confluence, harvested, washed, resuspended in KGM, and dispensed into a 96-well microtiter plate. They were then exposed to different concentrations of peptides or amphotericin B at 37° C. and 5% CO2 for 1.5 h. MTS agent was then added to each well, and the cells were further incubated for 4 h. Absorbance at 490 nm was then measured using a microplate reader. MTS reduction is an indication of cell viability. The viability is expressed as relative absorbance (percentage of no-agent control). Data represent the average and standard deviation of results from two independent experiments.
Cell culture. The HOK-16B cell line (originated from primary normal human keratinocytes) was kindly provided by No-Hee Park, UCLA School of Dentistry. The KB cell line was obtained from the American Type Culture Collection (CLL-17). […]
MTS cell viability assay. The toxic effect of the compounds on the cells was determined by calorimetric assay using a CellTiter 96 AQueous One Solution cell proliferation assay (MTS) kit (Promega, Wis.). […] Absorbance at 490 nm was then measured using a microplate reader. […]
On the technique in general: Tetrazolium assays rely on reduction of a dye to a coloured formazan, in cell work by metabolically active cells.

Where [1] appears, read: Experimental study I, topical oral application.

Read-outs that look alike come from different tables or passages of the source.

For the molecule `C[C@@H]1[C@H](O)[C@@H](C)/C=C/C=C/C=C/C=C/C=C/C=C/C=C/[C@H](O[C@@H]2O[C@H](C)[C@@H](O)[C@H](N)[C@@H]2O)C[C@@H]2O[C@](O)(C[C@@H](O)C[C@@H](O)[C@H](O)CC[C@@H](O)C[C@@H](O)CC(=O)O[C@H]1C)C[C@H](O)[C@H]2C(=O)O` [Amphotericin B], the “Log10 cfu/ml (Mean + S.D.), Initial infection” value is listed as 4.52 ± 0.15 Log10 cfu/ml with C. albicans strain DIS (Experimental study I, day 3 post-infection) and 4.26 ± 0.54 Log10 cfu/ml with C. albicans strain DIS (Experimental study II). In addition, the “Log10 cfu/ml (Mean + S.D.), 3-days treatment” value in the data set with C. albicans strain DIS (setting [1]) was 1.79 ± 1.16 Log10 cfu/ml; in the data set with C. albicans strain DIS (Experimental study II), 1.23 ± 1.44 Log10 cfu/ml. In addition, the “Log10 cfu/ml (Mean + S.D.), 6-days treatment” value in the data set on C. albicans strain DIS (setting [1]) turned out to be 0.75 ± 1.04 Log10 cfu/ml. Moreover, the “histopathological finding in tongue sections (C. albicans, PAS staining)” value with C. albicans strain DIS (end of treatment) is “healthy tissue and absence of visible microorganisms”. The same molecule had an IC50 with HOK-16B cells of 100 µM.
